Like-named read-outs stand apart in the source and are kept apart here.
Experiments:
TPM3-TRKA fusion protein = target: T1, TPM3-TRKA fusion protein (Homo sapiens, UniProt P04629); experiment: TPM3-TRKA fusion protein levels in KM12 cells (Western blot); type: cell-based; conditions: read-out: Degradation (at 10 nM)
T1 construct: The resulted chimeric proteins always retain the kinase domain of TRK proteins; TPM3 (fusion partner, N-terminal part of tropomyosin alpha-3, P06753); endogenous in cells; host or cells: KM12 colon cancer cells; the other entry of the earlier key: TPM3 (P06753, Tropomyosin alpha-3 chain)
Method in brief: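 KM12 colon cancer cells were treated with DMSO or compounds at 0.1–100 nM, 0.4–30 nM or other stated concentrations for 4, 8–16 or 16 h. RIPA lysates were BCA-normalized and resolved by SDS-PAGE. TPM3-TRKA was detected by chemiluminescent Western blot, with bands quantified by densitometry.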

KM12 cells = experiment: KM12 cell viability (CellTiter-Glo); type: cell-based; conditions: Homo sapiens
Method in brief: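 KM12 cells seeded at 5000 per well in RPMI 1640 + 10% FBS and exposed 3 days to serial dilutions (11-point 3-fold, 8-point 3-fold from 1000 nM, or 12-point 2-fold). Viability by CellTiter-Glo; IC50 from least-squares nonlinear regression.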

[1] = 16 h, TPM3-TRKA degradation in KM12 cells at 10 nM
[2] = 72 h, KM12 cell viability, 11-point 3-fold serial dilution, 3 days, CellTiter-Glo, read-out: IC50

T1 sequence (P04629 with tags, fused parts or gaps): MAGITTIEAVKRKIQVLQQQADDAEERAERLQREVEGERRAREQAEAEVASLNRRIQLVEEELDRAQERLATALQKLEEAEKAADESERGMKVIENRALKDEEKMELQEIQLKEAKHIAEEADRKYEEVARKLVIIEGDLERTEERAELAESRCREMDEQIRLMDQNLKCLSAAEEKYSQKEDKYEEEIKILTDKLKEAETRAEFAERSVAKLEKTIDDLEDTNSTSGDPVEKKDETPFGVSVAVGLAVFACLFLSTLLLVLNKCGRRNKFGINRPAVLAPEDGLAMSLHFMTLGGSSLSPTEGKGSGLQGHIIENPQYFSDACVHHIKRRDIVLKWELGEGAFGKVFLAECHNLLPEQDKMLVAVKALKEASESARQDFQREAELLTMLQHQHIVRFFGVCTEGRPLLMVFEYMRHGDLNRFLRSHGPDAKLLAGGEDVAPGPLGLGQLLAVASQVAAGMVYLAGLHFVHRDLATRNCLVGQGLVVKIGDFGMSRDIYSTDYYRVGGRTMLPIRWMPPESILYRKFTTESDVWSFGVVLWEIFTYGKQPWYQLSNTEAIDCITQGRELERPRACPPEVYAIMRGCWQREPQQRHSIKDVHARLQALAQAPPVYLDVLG

percent degradation of TPM3-TRKA protein at 0.01 µM (TPM3-TRKA fusion protein; [1]) [%]	Structure (SMILES)	IC50 (KM12 cells; [2]) [nM]	further results
> 80	NC(=O)C1CCN(c2cc(CN3CCN(C(=O)CCCNc4cccc5c4C(=O)N(C4CCC(=O)NC4=O)C5=O)CC3)ccc2NC(=O)c2coc(N3CCOCC3)n2)CC1 (centres unmarked) [CPD-480, N-(2-(4-carbamoylpiperidin-1-yl)-4-((4-(4-((2-(2,6-dioxopiperidin-3-yl)-1,3-dioxoisoindolin-4-yl)amino)butanoyl)piperazin-1-yl)methyl)phenyl)-2-morpholinooxazole-4-carboxamide]	22	–
> 80	NC(=O)C1CCN(c2cc(CN3CCN(C(=O)CCCCNc4cccc5c4C(=O)N(C4CCC(=O)NC4=O)C5=O)CC3)ccc2NC(=O)c2coc(N3CCOCC3)n2)CC1 (centres unmarked) [CPD-481, N-(2-(4-carbamoylpiperidin-1-yl)-4-((4-(5-((2-(2,6-dioxopiperidin-3-yl)-1,3-dioxoisoindolin-4-yl)amino)pentanoyl)piperazin-1-yl)methyl)phenyl)-2-morpholinooxazole-4-carboxamide]	17	–
> 80	NC(=O)C1CCN(c2cc(CN3CCN(C(=O)CCCCCNc4cccc5c4C(=O)N(C4CCC(=O)NC4=O)C5=O)CC3)ccc2NC(=O)c2coc(N3CCOCC3)n2)CC1 (centres unmarked) [CPD-482, N-(2-(4-carbamoylpiperidin-1-yl)-4-((4-(6-((2-(2,6-dioxopiperidin-3-yl)-1,3-dioxoisoindolin-4-yl)amino)hexanoyl)piperazin-1-yl)methyl)phenyl)-2-morpholinooxazole-4-carboxamide]	4.7	–
> 80	NC(=O)C1CCN(c2cc(CN3CCN(C(=O)CCCCCCNc4cccc5c4C(=O)N(C4CCC(=O)NC4=O)C5=O)CC3)ccc2NC(=O)c2coc(N3CCOCC3)n2)CC1 (centres unmarked) [CPD-483, N-(2-(4-carbamoylpiperidin-1-yl)-4-((4-(7-((2-(2,6-dioxopiperidin-3-yl)-1,3-dioxoisoindolin-4-yl)amino)heptanoyl)piperazin-1-yl)methyl)phenyl)-2-morpholinooxazole-4-carboxamide]	5.5	–
> 80	NC(=O)C1CCN(c2cc(CN3CCN(C(=O)CCCCCCCNc4cccc5c4C(=O)N(C4CCC(=O)NC4=O)C5=O)CC3)ccc2NC(=O)c2coc(N3CCOCC3)n2)CC1 (centres unmarked) [CPD-484, N-(2-(4-carbamoylpiperidin-1-yl)-4-((4-(8˜ ((2-(2,6-dioxopiperidin-3-yl)-1,3-dioxoisoindolin-4-yl)amino)octanoyl)piperazin-1-yl)methyl)phenyl)-2-morpholinooxazole-4-carboxamide]	42	–

The next lines start with the molecule.

Structure (SMILES)	percent degradation of TPM3-TRKA protein at 0.01 µM (TPM3-TRKA fusion protein; [1]) [%]	IC50 (KM12 cells; [2]) [nM]	further results
NC(=O)C1CCN(c2cc(CN3CCN(C(=O)CCNc4cccc5c4C(=O)N(C4CCC(=O)NC4=O)C5=O)CC3)ccc2NC(=O)c2coc(N3CCOCC3)n2)CC1 (centres unmarked) [CPD-479, N-(2-(4-carbamoylpiperidin-1-yl)-4-((4-(3-((2-(2,6-dioxopiperidin-3-yl)-1,3-dioxoisoindolin-4-yl)amino)propanoyl)piperazin-1-yl)methyl)phenyl)-2-morpholinooxazole-4-carboxamide]	50 to 80	132	–
NC(=O)C1CCN(c2cc(CN3CCN(C(=O)CCOCCNc4cccc5c4C(=O)N(C4CCC(=O)NC4=O)C5=O)CC3)ccc2NC(=O)c2coc(N3CCOCC3)n2)CC1 (centres unmarked) [CPD-485, N-(2-(4-carbamoylpiperidin-1-yl)-4-((4-(3-(2-((2-(2,6-dioxopiperidin-3-yl)-1,3-dioxoisoindolin-4-yl)amino)ethoxy)propanoyl)piperazin-1-yl)methyl)phenyl)-2-morpholinooxazole-4-carboxamide]	50 to 80	94	–
NC(=O)C1CCN(c2cc(CN3CCN(C(=O)CCOCCOCCOCCNc4cccc5c4C(=O)N(C4CCC(=O)NC4=O)C5=O)CC3)ccc2NC(=O)c2coc(N3CCOCC3)n2)CC1 (centres unmarked) [CPD-487, N-(2-(4-carbamoylpiperidin-1-yl)-4-((4-(3-(2-(2-(2-((2-(2,6-dioxopiperidin-3-yl)-1,3-dioxoisoindolin-4-yl)amino)ethoxy)ethoxy)ethoxy)propanoyl)piperazin-1-yl)methyl)phenyl)-2-morpholinooxazole-4-carboxamide]	50 to 80	121	–
Cc1ncsc1-c1ccc(CNC(=O)[C@@H]2C[C@@H](O)CN2C(=O)[C@@H](NC(=O)CCCCCCCCC(=O)N2CCN(Cc3ccc(NC(=O)c4coc(N5CCOCC5)n4)c(N4CCC(C(N)=O)CC4)c3)CC2)C(C)(C)C)cc1 [CPD-493, N-(2-(4-carbamoylpiperidin-1-yl)-4-((4-(10-(((S)-1-((2S,4R)-4-hydroxy-2-((4-(4-methylthiazol-5-yl)benzyl)carbamoyl)pyrrolidin-1-yl)-3,3-dimethyl-1-oxobutan-2-yl)amino)-10-oxodecanoyl)piperazin-1-yl)methyl)phenyl)-2-morpholinooxazole-4-carboxamide]	50 to 80	46	–
COc1ccc(COc2ccc(Cn3c(N)nc4cc(-c5cnn(CC(=O)NCCNc6cccc7c6C(=O)N(C6CCC(=O)NC6=O)C7=O)c5)cnc43)cc2OC)cc1 (centres unmarked) [CPD-498, 2-(4-(2-amino-3-(3-methoxy-4-((4-methoxybenzyl)oxy)benzyl)-3H-imidazo[4,5-b]pyridin-6-yl)-1H-pyrazol-1-yl)-N-(2-((2-(2,6-dioxopiperidin-3-yl)-1,3-dioxoisoindolin-4-yl)amino)ethyl)acetamide]	–	–	percent degradation of TPM3-TRKA protein at 0.01 µM (TPM3-TRKA fusion protein; KM12, 16 h): 50 to 80%; IC50 (KM12 cells; KM12, 72 h): 36.5 nM
COc1ccc(COc2ccc(Cn3c(N)nc4cc(-c5cnn(CC(=O)NCCCCNc6cccc7c6C(=O)N(C6CCC(=O)NC6=O)C7=O)c5)cnc43)cc2OC)cc1 (centres unmarked) [CPD-499, 2-(4-(2-amino-3-(3-methoxy-4-((4-methoxybenzyl)oxy)benzyl)-3H-imidazo[4,5-b]pyridin-6-yl)-1H-pyrazol-1-yl)-N-(4-((2-(2,6-dioxopiperidin-3-yl)-1,3-dioxoisoindolin-4-yl)amino)butyl)acetamide]	> 80	11.3	–
COc1ccc(COc2ccc(Cn3c(N)nc4cc(-c5cnn(CC(=O)NCCCCCCNc6cccc7c6C(=O)N(C6CCC(=O)NC6=O)C7=O)c5)cnc43)cc2OC)cc1 (centres unmarked) [CPD-500, 2-(4-(2-amino-3-(3-methoxy-4-((4-methoxybenzyl)oxy)benzyl)-3H-imidazo[4,5-b]pyridin-6-yl)-1H-pyrazol-1-yl)-N-(6-((2-(2,6-dioxopiperidin-3-yl)-1,3-dioxoisoindolin-4-yl)amino)hexyl)acetamide]	> 80	13.2	–
COc1ccc(COc2ccc(Cn3c(N)nc4cc(-c5cnn(CC(=O)NCCCCCCCCNc6cccc7c6C(=O)N(C6CCC(=O)NC6=O)C7=O)c5)cnc43)cc2OC)cc1 (centres unmarked) [CPD-501, 2-(4-(2-amino-3-(3-methoxy-4-((4-methoxybenzyl)oxy)benzyl)-3H-imidazo[4,5-b]pyridin-6-yl)-1H-pyrazol-1-yl)-N-(8-((2-(2,6-dioxopiperidin-3-yl)-1,3-dioxoisoindolin-4-yl)amino)octyl)acetamide]	> 80	13.2	–
COc1ccc(COc2ccc(Cn3c(N)nc4cc(-c5cnn(CC(=O)NCCCCCCCC(=O)N[C@H](C(=O)N6C[C@H](O)C[C@H]6C(=O)NCc6ccc(-c7scnc7C)cc6)C(C)(C)C)c5)cnc43)cc2OC)cc1 [CPD-510, (2S,4R)-1-((S)-2-(8-(2-(4-(2-amino-3-(3-methoxy-4-((4-methoxybenzyl)oxy)benzyl)-3H-imidazo[4,5-b]pyridin-6-yl)-1H-pyrazol-1-yl)acetamido)octanamido)-3,3-dimethylbutanoyl)-4-hydroxy-N-(4-(4-methylthiazol-5-yl)benzyl)pyrrolidine-2-carboxamide]	< 50	58.8	–
COc1ccc(COc2ccc(Cn3c(N)nc4cc(-c5cnn(CC(=O)NCCCCCCCCCC(=O)N[C@H](C(=O)N6C[C@H](O)C[C@H]6C(=O)NCc6ccc(-c7scnc7C)cc6)C(C)(C)C)c5)cnc43)cc2OC)cc1 [CPD-511, (2S,4R)-1-((S)-2-(10-(2-(4-(2-amino-3-(3-methoxy-4-((4-methoxybenzyl)oxy)benzyl)-3H-imidazo[4,5-b]505yridine-6-yl)-1H-pyrazol-1-yl)acetamido)decanamido)-3,3-dimethylbutanoyl)-4-hydroxy-N-(4-(4-methylthiazol-5-yl)benzyl)pyrrolidine-2-carboxamide]	< 50	85.8	–
O=C(CN1CCN(c2cccc(-c3cnc4ccc(N5CCC[C@@H]5c5cccc(F)c5)nn34)n2)CC1)NCCOCCNc1cccc2c1C(=O)N(C1CCC(=O)NC1=O)C2=O (stereo partly drawn) [TR-106, N-(2-(2-((2-(2,6-dioxopiperidin-3-yl)-1,3-dioxoisoindolin-4-yl)amino)ethoxy)ethyl)-2-(4-(6-(6-((R)-2-(3-fluorophenyl)pyrrolidin-1-yl)imidazo[1,2-b]pyridazin-3-yl)pyridin-2-yl)piperazin-1-yl)acetamide]	–	–	percent degradation of TPM3-TRKA protein at 0.01 µM (TPM3-TRKA fusion protein; 16 h, TPM3-TRKA degradation in KM12 cells at 10 nM compound, category of percentage degradation): 50 to 80%; IC50 (KM12 cells; 72 h, KM12 cell viability, CellTiter-Glo, three days treatment, read-out: IC50): 3.8 nM

— patent US12410171B2, “Tropomyosin receptor kinase (TRK) degradation compounds and methods of use” (Cullgen (Shanghai), Inc., priority 2020, dated 2025)
